Activity calls are given as the source filed them. No cut-off for these calls is given here.
Key:
HeLa [1] = assay: Induction of cell cycle arrest in human HeLa cells assessed as accumulation of cells at G0/G1 phase at 0.06 uM incubated for 24 hrs by propidium iodide staining based flow cytometry (reference value: 62.4 %); format: functional
[2] = MRT (0-t) in Sprague-Dawley rat at 10 mg/kg,po measured upto 24 hrs by LC-MS/MS analysis; format: ADME, organism-based; conditions: in vivo
HeLa [3] = assay: Antiproliferative activity against human HeLa cells assessed as cell growth inhibition incubated for 48 hrs by MTT assay; format: functional, cell-based
HeLa [4] = assay: Induction of apoptosis in human HeLa cells assessed as necrotic cells at 0.06 uM incubated for 24 hrs Annexin V-FITC/PI staining based flow cytometry analysis (Rvb= 0.12 %); format: functional
HeLa [5] = assay: Induction of apoptosis in human HeLa cells assessed as early apoptotic cells at 0.12 uM incubated for 24 hrs Annexin V-FITC/PI staining based flow cytometry analysis (Rvb= 1.85 %); format: functional
HUVEC [6] = assay: Antivascular activity against human HUVEC cells assessed as inhibition of capillary tube formation incubated for 24 hrs by crystal violet staining based matrigel-transwell assay; format: functional, cell-based
[7] = Half life in Sprague-Dawley rat at 10 mg/kg,po measured upto 24 hrs by LC-MS/MS analysis; format: ADME, organism-based; conditions: in vivo
HeLa [8] = assay: Induction of cell cycle arrest in human HeLa cells assessed as accumulation of cells at G0/G1 phase at 0.03 uM incubated for 24 hrs by propidium iodide staining based flow cytometry (reference value: 62.4 %); format: functional
MDA-MB-231 = assay: Antiproliferative activity against human MDA-MB-231 cells assessed as cell growth inhibition incubated for 48 hrs by MTT assay; format: functional, cell-based; conditions: MDA-MB-231, 48 h
A549 [9] = assay: Antitumor activity against human A549 cells xenografted in Balb/c mouse assessed as inhibition of tumor weight at 60 mg/kg,ip administrated for 7 days; format: functional, organism-based; conditions: time 7.0 day
HeLa [10] = assay: Induction of cell cycle arrest in human HeLa cells assessed as accumulation of cells at G2/M phase at 0.06 uM incubated for 24 hrs by propidium iodide staining based flow cytometry (reference value: 17.38 %); format: functional
HUVEC [11] = assay: Antivascular activity against human HUVEC cells assessed as inhibition of cell migration incubated for 24 hrs by wound healing assay; format: functional, cell-based
[12] = Antiproliferative activity against human HEK293 cells assessed as cell growth inhibition incubated for 48 hrs by MTT assay; format: toxicity, cell-based
[13] = Clearance in Sprague-Dawley rat at 2 mg/kg,iv measured upto 24 hrs by LC-MS/MS analysis; format: ADME, organism-based; conditions: in vivo
[14] = Volume of distribution at steady state in Sprague-Dawley rat at 10 mg/kg,po measured upto 24 hrs by LC-MS/MS analysis; format: ADME, organism-based; conditions: in vivo
HeLa [15] = assay: Induction of apoptosis in human HeLa cells assessed as necrotic cells at 0.12 uM incubated for 24 hrs Annexin V-FITC/PI staining based flow cytometry analysis (Rvb= 0.12 %); format: functional
[16] = Tmax in Sprague-Dawley rat at 2 mg/kg,iv measured upto 24 hrs by LC-MS/MS analysis; format: ADME, organism-based; conditions: in vivo
[17] = Volume of distribution at steady state in Sprague-Dawley rat at 2 mg/kg,iv measured upto 24 hrs by LC-MS/MS analysis; format: ADME, organism-based; conditions: in vivo
[18] = MRT (0-infinity) in Sprague-Dawley rat at 2 mg/kg,iv measured upto 24 hrs by LC-MS/MS analysis; format: ADME, organism-based; conditions: in vivo
HeLa [19] = assay: Induction of apoptosis in human HeLa cells assessed as late apoptotic cells at 0.06 uM incubated for 24 hrs Annexin V-FITC/PI staining based flow cytometry analysis (Rvb= 2.13 %); format: functional
HeLa [20] = assay: Induction of apoptosis in human HeLa cells assessed as viable cells at 0.12 uM incubated for 24 hrs Annexin V-FITC/PI staining based flow cytometry analysis (Rvb= 95.9 %); format: functional; conditions: read-out: Activity
A549 [21] = assay: Antiproliferative activity against human A549 cells assessed as cell growth inhibition incubated for 48 hrs by MTT assay; format: functional, cell-based; conditions: A549, 48 h
[22] = Cmax in Sprague-Dawley rat at 10 mg/kg,po measured upto 24 hrs by LC-MS/MS analysis; format: ADME, organism-based; design: time < 24 hrs, dose 10 mg/kg, route po; conditions: in vivo
[23] = Toxicity in Balb/c mouse xenografted with human A549 cells assessed as change in body weight at 60 mg/kg,ip administrated for 7 days; format: organism-based; conditions: in vivo, 168 h, time 7 day
HeLa [24] = assay: Induction of apoptosis in human HeLa cells assessed as necrotic cells at 0.03 uM incubated for 24 hrs Annexin V-FITC/PI staining based flow cytometry analysis (Rvb= 0.12 %); format: functional
HeLa [25] = assay: Induction of apoptosis in human HeLa cells assessed as late apoptotic cells at 0.03 uM incubated for 24 hrs Annexin V-FITC/PI staining based flow cytometry analysis (Rvb= 2.13 %); format: functional
HeLa [26] = assay: Induction of cell cycle arrest in human HeLa cells assessed as accumulation of cells at S phase at 0.06 uM incubated for 24 hrs by propidium iodide staining based flow cytometry (reference value: 20.22 %); format: functional
[27] = MRT (0-infinity) in Sprague-Dawley rat at 10 mg/kg,po measured upto 24 hrs by LC-MS/MS analysis; format: ADME, organism-based; conditions: in vivo
[28] = AUC (0-infinity) in Sprague-Dawley rat at 10 mg/kg,po measured upto 24 hrs by LC-MS/MS analysis; format: ADME, organism-based; design: time < 24 hrs, dose 10 mg/kg, route po; conditions: in vivo
Tubulin = assay: Inhibition of tubulin polymerization (unknown origin) measured for 20 mins in presence of GTP by spectrophotometry analysis; format: protein-complex assay, Homo sapiens
[29] = Clearance in Sprague-Dawley rat at 10 mg/kg,po measured upto 24 hrs by LC-MS/MS analysis; format: ADME, organism-based; conditions: in vivo
HeLa [30] = assay: Induction of cell cycle arrest in human HeLa cells assessed as accumulation of cells at S phase at 0.03 uM incubated for 24 hrs by propidium iodide staining based flow cytometry (reference value: 20.22 %); format: functional
HeLa [31] = assay: Induction of apoptosis in human HeLa cells assessed as viable cells at 0.06 uM incubated for 24 hrs Annexin V-FITC/PI staining based flow cytometry analysis (Rvb= 95.9 %); format: functional; conditions: read-out: Activity
A549 [32] = assay: Antitumor activity against human A549 cells xenografted in Balb/c mouse assessed as tumor growth inhibition at 60 mg/kg,ip administrated for 7 days; format: functional; conditions: A549, 168 h, time 7 day, read-out: TGI
HT-29 = assay: Antiproliferative activity against human HT-29 cells assessed as cell growth inhibition incubated for 48 hrs by MTT assay; format: functional, cell-based; conditions: HT-29, 48 h
HeLa [33] = assay: Induction of cell cycle arrest in human HeLa cells assessed as accumulation of cells at G0/G1 phase at 0.12 uM incubated for 24 hrs by propidium iodide staining based flow cytometry (reference value: 62.4 %); format: functional
HeLa [34] = assay: Induction of apoptosis in human HeLa cells assessed as early apoptotic cells at 0.03 uM incubated for 24 hrs Annexin V-FITC/PI staining based flow cytometry analysis (Rvb= 1.85 %); format: functional
[35] = Cmax in Sprague-Dawley rat at 2 mg/kg,iv measured upto 24 hrs by LC-MS/MS analysis; format: ADME, organism-based; design: time < 24 hrs, dose 2 mg/kg, route iv; conditions: in vivo
[36] = AUC (0-t) in Sprague-Dawley rat at 2 mg/kg,iv measured upto 24 hrs by LC-MS/MS analysis; format: ADME, organism-based; design: dose 2 mg/kg, time < 24 hrs, route iv; conditions: in vivo

For `COc1cc(Cc2nnc3n2N=C(c2ccc(C)cc2)CS3)cc(OC)c1OC`, the Activity (HeLa [1]) was 1.94%, the MRT last at 24 h [2] was 6.4 h and the IC50 (HeLa [3]) was 46 nM. The Activity (HeLa [4]) was 0.46%, the Activity (HeLa [5]) was 24% and the Activity (HUVEC [6]) was “Dose-Dependent Effect”. The half-life [7] was 4.8 h, the Activity (HeLa [8]) was 52.76% and the IC50 (MDA-MB-231) was 1890 nM. For the same compound, the Activity (A549 [9]) was “Active”, the Activity (HeLa [10]) was 69.71% and the Activity (HUVEC [11]) was “Dose-Dependent Effect”. The IC50 at 48 h [12] was > 100000 nM, the CL [13] was 118 mL/min/kg and the Vdss [14] was 1036.2 L/kg. For the same compound, the Activity (HeLa [15]) was 1.59%, the Tmax [16] was 6 min and the Vdss [17] was 91.5 L/kg. It also gave an MRT [18] of 1.8 h, an Activity (HeLa [19]) of 7.44% and a viability at 0.12 µM (HeLa [20]) of 65.2%. The IC50 (A549 [21]) was 960 nM, the Cmax [22] was 28.4 ng/mL and the Activity [23] was “Non-Toxic”. It also gave an Activity (HeLa [24]) of 0.57%, an Activity (HeLa [25]) of 4.9% and an Activity (HeLa [26]) of 28.35%. For the same compound, the MRT inf [27] was 7.9 h, the AUC(0-inf) [28] was 124 ng·h/mL and the IC50 (Tubulin) was 11200 nM. It also gave a CL/F [29] of 2180 mL/min/kg, an Activity (HeLa [30]) of 19.86% and a viability at 0.06 µM (HeLa [31]) of 74.7%. For the same compound, the inhibition in vivo at 60 mg/kg (A549 [32]) was 47.3%, the IC50 (HT-29) was 570 nM and the Activity (HeLa [33]) was 0.51%. For the same compound, the Activity (HeLa [34]) was 18.6%, the Cmax [35] was 670 ng/mL and the AUC(0-t) at 24 h [36] was 307 ng·h/mL.

Source: ChEMBL document CHEMBL5370538, “Discovery of novel 6-p-tolyl-3-(3,4,5-trimethoxybenzyl)-7H-[1,2,4]triazolo[3,4-b][1,3,4]thiadiazine derivative as a potent tubulin inhibitor with promising in vivo antitumor activity” (Eur J Med Chem, 2023)
